Read-outs that look alike come from different tables or passages of the source.
Columns and labels:
[1] = tested on: C. crescentus CB15N; experiment: MIC of bacterial growth, macrodilution (Table 2); format: cell-based, Caulobacter crescentus; details: actively growing cells
Method: Bacterial strains and growth conditions. Luria-Bertani (LB) media (10 g/L tryptone, 10 g/L NaCl, 5 g/L yeast extract, pH 7.2) was used to grow B. subtilis 168, S. aureus FRI100, and P. aeruginosa K1115 strains. For P. aeruginosa PAO1 and K1119 strains and two E. coli BW25113 strains, M8 minimal media (241 mg/L MgSO4, 4 mg/L glucose, 5 mg/L casamino acids, 12.8 g/L Na2HPO4.7H2O, 3 g/L KH2PO4, and 0.5 g/L NaCl) was used. PYE media (2 g/L peptone, 1 g/L yeast extract, 0.8 mM MgSO4, and 0.5 mM CaCl2) was used for culturing C. crescentus cells at 30° C. All cultures were grown at 37° C., except for C. crescentus (30° C.). All cultures were grown while shaking at 200 rpm.
Determination of the minimum inhibitory concentration (MIC) of bacterial growth. The MIC of various organisms in liquid media was determined using the macrodilution method according to the NCCLS guidelines. For the starting inoculum, cultures were diluted to contain approximately 5×10^5 cells/mL in growth media. To create a two-fold dilution series for the macrodilution technique, each compound was added to the first culture tube (4 mL total volume) at the highest concentration. 2 mL of this culture was diluted into an equal volume of inoculated media (a two-fold dilution). The final volume for each culture was 2 mL.

[2] = tested on: C. crescentus CB15N; experiment: Minimum stationary-bactericidal concentration (MSC); format: cell-based, Caulobacter crescentus; details: C. crescentus CB15N, stationary cells, 24 hours
Method: (§1) Determination of the Minimum Stationary-Bactericidal Concentration.
(§2) Cultures of C. crescentus (24 hour incubation) and S. aureus cells (5 day incubation) were grown from single colonies. Cells were collected by centrifugation (8500 rpm for 2.5 minutes) and re-suspended in M2 salt solution (for C. crescentus; 1.74 g/L Na2HPO4, 1.06 g/L KH2PO4, and 0.5 g/L NH4Cl) or phosphate-buffered saline (for S. aureus; PBS, Fisher Scientific). The centrifugation and re-suspension was repeated two more times. After the repeated washing steps, the cell suspension was diluted 10-fold to achieve approximately 10^8 cells/mL. Aliquots of the diluted cell suspension were transferred into wells of a 96-well plate (100 μL/well), and 2-fold serial dilutions were performed to test a range of antibiotic concentrations. The plate was sealed with Parafilm® and incubated for 24 hours at room temperature in the dark. After incubation, 50 μl was removed from each well to spread on nutrient agar plates (1.5% agar in PYE for C. crescentus, and LB for S. aureus). The colonies on each plate were counted after growing the cells for 1-2 days. For determining the kinetics of bactericidal activity of DCAP on stationary cultures, the washed cells were diluted by 100-fold in appropriate solutions and tested using a single concentration of the compound while including a DMSO control sample. Cell suspensions were kept in closed microcentrifuge tubes instead of the wells of 96-well plates. 100 μL of the suspensions was removed for plating at each time point. All MSC experiments were performed in static conditions.
(§3) In addition to its activity against actively growing bacteria, DCAP kills cells in stationary phase (Table 3). This property was tested against C. crescentus and S. aureus. […] To ensure that bacteria were deprived of nutrients, the cells were grown into late stationary phase (i.e., 24 hours for C. crescentus and 5 days for S. aureus). These cells were collected, suspended in isotonic solutions devoid of amino acids or sugars, and treated with a small molecule (DMSO, DCAP, CCCP or ampicillin). Cell viability was measured over time by plating culture aliquots on non-selective, solid growth media. The minimum concentration of antibiotic required to completely eliminate colony formation was designated as the minimum stationary-bactericidal concentration (MSC). […] CCCP inhibited the proliferation of C. crescentus cells regardless of their physiological status. However, the MSC of CCCP for S. aureus was >300-fold higher than the MIC. This dramatic decrease in the effectiveness of CCCP in S. aureus may be due to changes in membrane composition as cells adjust their metabolism in nutrient-deprived conditions.

[3] = tested on: S. aureus FRI 100; experiment: as above; format: cell-based, Staphylococcus aureus; details: S. aureus FRI 100, stationary cells, 24 hours
Method: as §1, §2, §3

[4] = tested on: C. crescentus CB15N; experiment: Minimum biofilm inhibitory concentration (bMIC); format: cell-based, Caulobacter crescentus
Method: (§4) Determination of the minimum biofilm inhibitory concentration of growth (bMIC) and biofilm eradication concentration (MBEC). Overnight cultures of C. crescentus and S. aureus were grown and diluted 100-fold into appropriate nutrient media. Aliquots of the diluted suspension were transferred into wells of 96-well plates (150 μL/well). 2-fold serial dilutions were performed for compound-containing wells. For every experiment, three replicates for each compound concentration tested were included. After transferring aliquots of the suspension, the plates were closed with specialized lids that have protruding pins (Nunc STP System), and the plates were sealed using Parafilm®. The plates were incubated in a static incubator at 30° C. (C. crescentus) or 37° C. (S. aureus) for 24 hours. After the cells had formed biofilms on the surface of the pins, the pins were rinsed by dipping them in M2 (C. crescentus) or PBS (S. aureus) solutions. To rinse the pins, clean, sterile 96-well plates were used (aliquots of 200 μL/well); each rinse lasted 10 sec. After washing away planktonic cells loosely bound to biofilms, the pins were inserted into a 96-well plate that was pre-aliquoted with nutrient media containing antibiotics (2-fold dilutions, a final volume of 150 μL/well). The plates were sealed with Parafilm®, and incubated for 17 hours, and the bMIC was measured at the end of the incubation by visual inspection. […] The plates were sealed with Parafilm®, incubated for 24 hours, and the MBEC was measured at the end of the incubation by visual inspection.
(§5) Membrane-active compounds are also efficient at eradicating biofilm-associated cells (Table 2). […] To determine the efficacy of antibiotics against biofilms, the minimum biofilm inhibitory concentration (bMIC) and the minimum biofilm eradication concentration (MBEC) were measured. […] After 24 hours of exposure to compounds, the lowest concentration of antibiotic that inhibited planktonic cell growth in the wells (bMIC) was determined.

[5] = tested on: S. aureus FRI 100; experiment: Minimum biofilm inhibitory concentration (bMIC); format: cell-based, Staphylococcus aureus; details: S. aureus FRI 100 biofilm
Method: as §4, §5

[6] = tested on: C. crescentus CB15N; experiment: Minimum biofilm eradication concentration (MBEC); format: cell-based, Caulobacter crescentus
Method: (§6) Determination of the minimum biofilm inhibitory concentration of growth (bMIC) and biofilm eradication concentration (MBEC). Overnight cultures of C. crescentus and S. aureus were grown and diluted 100-fold into appropriate nutrient media. Aliquots of the diluted suspension were transferred into wells of 96-well plates (150 μL/well). 2-fold serial dilutions were performed for compound-containing wells. For every experiment, three replicates for each compound concentration tested were included. After transferring aliquots of the suspension, the plates were closed with specialized lids that have protruding pins (Nunc STP System), and the plates were sealed using Parafilm®. The plates were incubated in a static incubator at 30° C. (C. crescentus) or 37° C. (S. aureus) for 24 hours. After the cells had formed biofilms on the surface of the pins, the pins were rinsed by dipping them in M2 (C. crescentus) or PBS (S. aureus) solutions. To rinse the pins, clean, sterile 96-well plates were used (aliquots of 200 μL/well); each rinse lasted 10 sec. After washing away planktonic cells loosely bound to biofilms, the pins were inserted into a 96-well plate that was pre-aliquoted with nutrient media containing antibiotics (2-fold dilutions, a final volume of 150 μL/well). The plates were sealed with Parafilm®, and incubated for 17 hours, and the bMIC was measured at the end of the incubation by visual inspection. After the bMIC run, the rinse steps were repeated to remove planktonic cells, and the pins were inserted into a 96-well plate that was pre-aliquoted with drug-free nutrient media (aliquots of 150 μL/well). The plates were sealed with Parafilm®, incubated for 24 hours, and the MBEC was measured at the end of the incubation by visual inspection.
After performing bMIC experiments, biofilms growing on the pins of the lid were transferred to nutrient media devoid of antibiotics to measure the minimum concentration of antibiotic that prevented planktonic growth from biofilms in antibiotic-free nutrient media (MBEC). MBEC indicates whether the exposure to antimicrobial agent used during the bMIC experiment sterilized biofilm-associated cells. […] CCCP was the only effective antibiotic against S. aureus biofilms. Since CCCP was not as effective as DCAP at killing stationary cells, it was hypothesized that this variability in efficacy of membrane-active drugs is in part caused by changes in membrane composition (i.e., membrane proteins and lipid content) at different developmental stages of bacterial cells. […]

[7] = tested on: S. aureus FRI 100; experiment: Minimum biofilm eradication concentration (MBEC); format: cell-based, Staphylococcus aureus; details: S. aureus FRI 100 biofilm
Method: as §6
After performing bMIC experiments, biofilms growing on the pins of the lid were transferred to nutrient media devoid of antibiotics to measure the minimum concentration of antibiotic that prevented planktonic growth from biofilms in antibiotic-free nutrient media (MBEC). […]

[8] = tested on: E. coli BW25113 ΔtolC; experiment: MIC of DCAP analogs, LB media, macrodilution (CLSI); format: cell-based; details: Escherichia coli
Method: Luria-Bertani (LB) media (10 g/L tryptone, 10 g/L NaCl, 5 g/L yeast extract, pH 7.0) was used to grow all the strains represented in Tables 5 and 6. All the cultures were grown at 37° C. All the E. coli strains were grown while shaking at 200 rpm and the clinical pathogens were statically incubated. […]

[9] = tested on: Acinetobacter baumannii; experiment: MIC of DCAP analogs, LB media, microdilution (CLSI); format: cell-based; details: microdilution (Table 6)
Method: (§7) Luria-Bertani (LB) media (10 g/L tryptone, 10 g/L NaCl, 5 g/L yeast extract, pH 7.0) was used to grow all the strains represented in Tables 5 and 6. All the cultures were grown at 37° C. All the E. coli strains were grown while shaking at 200 rpm and the clinical pathogens were statically incubated.
(§8) For clinical pathogenic organisms including S. typhimurium, V. cholera, S. boydii, K pneumonia, E. aerogenes, A. baumannii, E. tarda, and M. morganii strains, liquid LB media in 96-well microplates (100 μL/well) and the microdilution method from the CLSI guidelines were used.

[10] = tested on: Edwardsiella tarda; experiment: as above; format: cell-based; details: microdilution (Table 6)
Method: as §7, §8

[11] = tested on: Enterobacter aerogenes; experiment: as above; format: cell-based; details: Klebsiella aerogenes, microdilution (Table 6)
Method: as §7, §8

[12] = tested on: Klebsiella pneumonia; experiment: as above; format: cell-based; details: Klebsiella pneumoniae, microdilution (Table 6)
Method: as §7, §8

[13] = tested on: Morganella morganii; experiment: as above; format: cell-based; details: microdilution (Table 6)
Method: as §7, §8

[14] = tested on: Salmonella typhimurium; experiment: as above; format: cell-based; details: Salmonella enterica, microdilution (Table 6)
Method: as §7, §8

[15] = tested on: Shigella boydii; experiment: as above; format: cell-based; details: microdilution (Table 6)
Method: as §7, §8

[16] = tested on: Vibrio cholera; experiment: as above; format: cell-based; details: Vibrio cholerae
Method: as §7, §8

[17] = BW25113, read-out: MIC (ΔtolC E. coli)

SMILES: CC1(C)S[C@@H]2[C@H](NC(=O)[C@H](N)c3ccccc3)C(=O)N2[C@H]1C(=O)O [Amp, ampicillin]
- MIC [1]: 50 µg/mL
- MSC [2]: >400 µg/mL
- MSC [3]: 100 µg/mL
- bMIC [4]: 100 µg/mL
- bMIC [5]: 0.8 µg/mL
- MBEC [6]: >400 µg/mL
- MBEC ([6]; listed as ampicillin): > 400 µM
- MBEC [7]: >200 µg/mL

SMILES: OCC(CO)(CO)NC[C@@H](O)Cn1c2ccc(Cl)cc2c2cc(Cl)ccc21 [Compound 2]
- MIC [8, 17]: 20 µM

SMILES: OCC(CO)(CO)NC[C@H](O)Cn1c2ccc(Cl)cc2c2cc(Cl)ccc21 [Compound 3]
- MIC [8, 17]: 20 µM

SMILES: OCC(CO)(CO)NC[C@@H](O)Cn1c2ccccc2c2ccccc21 [Compound 4]
- MIC [8, 17]: > 80 µM

SMILES: OCC(CO)NCC(O)Cn1c2ccc(Cl)cc2c2cc(Cl)ccc21 (stereo not drawn) [Compound 5]
- MIC [8, 17]: 20 µM

SMILES: CCC(CC)NCC(O)Cn1c2ccc(Cl)cc2c2cc(Cl)ccc21 (stereo not drawn) [Compound 6]
- MIC [8, 17]: 5 µM

SMILES: CCCCCNCC(O)Cn1c2ccc(Cl)cc2c2cc(Cl)ccc21 (stereo not drawn) [Compound 7]
- MIC [8, 17]: 5 µM

SMILES: CC(C)CCNCC(O)Cn1c2ccc(Cl)cc2c2cc(Cl)ccc21 (stereo not drawn) [Compound 8]
- MIC ([8]; BW25113): 2.5 µM
- MIC [8, 17]: 2.5 µM
- MIC [9]: 12.5 µM
- MIC [10]: 25 µM
- MIC [11]: 50 µM
- MIC [12]: 50 µM
- MIC [13]: 50 µM
- MIC [14]: 50 µM
- MIC [15]: 25 µM
- MIC [16]: 6.25 µM

SMILES: OC(CNC1CCCCC1)Cn1c2ccc(Cl)cc2c2cc(Cl)ccc21 (stereo not drawn) [Compound 9]
- MIC ([8]; BW25113): 2.5 µM
- MIC [8, 17]: 2.5 µM
- MIC [9]: 100 µM
- MIC [10]: 200 µM
- MIC [11]: > 200 µM
- MIC [12]: > 200 µM
- MIC [13]: > 200 µM
- MIC [14]: > 200 µM
- MIC [15]: 200 µM
- MIC [16]: 25 µM

SMILES: CCC(CC)CNCC(O)Cn1c2ccc(Cl)cc2c2cc(Cl)ccc21 (stereo not drawn) [Compound 10]
- MIC ([8]; BW25113): 2.5 µM
- MIC [8, 17]: 2.5 µM
- MIC [9]: 25 µM
- MIC [10]: 12.5 µM
- MIC [11]: > 200 µM
- MIC [12]: > 200 µM
- MIC [13]: > 200 µM
- MIC [14]: 200 µM
- MIC [15]: 25 µM
- MIC [16]: 6.25 µM

SMILES: CC(C)(C)NCC(O)Cn1c2ccc(Cl)cc2c2cc(Cl)ccc21 (stereo not drawn) [Compound 11]
- MIC [8, 17]: 40 µM

SMILES: OCC(CO)(CO)NCC(O)CN1CCc2cc(Cl)ccc21 (stereo not drawn) [Compound 12]
- MIC [8, 17]: > 40 µM

SMILES: CC(CO)(CO)NCC(O)Cn1c2ccc(Cl)cc2c2cc(Cl)ccc21 (stereo not drawn) [Compound 13]
- MIC [8, 17]: 40 µM

SMILES: CCC(CO)(CO)NCC(O)Cn1c2ccc(Cl)cc2c2cc(Cl)ccc21 (stereo not drawn) [Compound 14]
- MIC [8, 17]: 20 µM
